Measurements from patent EP4818152A1, “METHOD FOR PREPARING L-SERINE HYDROCHLORIDE AND USE THEREOF” (Astrogen, Inc., priority 2023, dated 2025).
Read-outs that look alike come from different tables or passages of the source.

Assays:
in vivo = conditions: mouse
Method: (§1) -6, -4, -2, and 0 hours before drug administration and 0.25, 0.5, 1, 3, 6, 9, and 12 hours after drug administration, the experimental mice were placed in a restrainer, a 2 mm incision was made at the tip of the tail, and about 40-50 µL of blood was collected into a heparin capillary tube while massaging the tail. […] Blood samples were transferred to 2 mL tubes and centrifuged at 2000× g for 10 minutes to separate the serum, which was then transferred to new tubes at about 20-25 µL per sample. […] The internal standard D, L-serine-2,3,3-d3 stock solution was prepared at a concentration of 60 µg/mL for preparing a calibration curve and at 2 µg/mL for spiking into samples. To prepare the reagents required for creating the calibration curve, 10 µL of the diluted stock solution and 10 µL of the internal standard solution (D, L-serine-2,3,3-d3, 60 µg/mL) were spiked into 980 µL of a solvent with a ratio of acetonitrile/water/trifluoroacetic acid (v/v/v, 96/5/0.5). […] The mixed solution was centrifuged at 16,000 g for 10 minutes, and the supernatant was separated and injected into LC-MS/MS at a volume of 5 µL. The ultra-high-performance liquid chromatography system consisted of a pump (LC-40D X3), an autosampler (SIL-40CX3), a column oven (CTO-40C), and a system controller (SCL-40) from Shimadzu (Duisburg, Germany), and the mass spectrometer used was a QTRQP LC-MS/MS 6500+ from SCIEX (Framingham, MA, USA). The column used was a CROWNPAK CR-I (+) [3.0 x 150 mm, 5 micron] from DAICEL (Osaka, Tokyo), and the column oven was set to 30°C. Acetonitrile/water/trifluoroacetic acid (v/v/v, 96/5/0.5) was used as the mobile phase, and the elution was performed under isocratic conditions. Mass spectrometry detection was performed under multiple reaction monitoring (MRM) conditions in ESI+ mode. MS/MS parameters were ion spray voltage, 5500 V; temperature 500°C; curtain gas, 30 psi; ion source gas (GS1), 50 psi, ion source gas (GS2), 50 psi. The declustering potential (DP), entrance potential (EP), collision energy (CE), and collision cell exit potential (CXP) values under MRM conditions were optimized in manual tuning mode using a syringe infusion pump, and mass spectrometric analysis was performed. Data acquisition and processing were performed using AB SCIEX Analyst software.

[1] = mouse, in vivo
Method: as §1

[2] = Mouse PK experiment (serum levels by LC-MS/MS)
Method: as §1

[3] = tested on: valproic acid (VPA)-induced autism model mice; test: Three-chamber test of social interaction in VPA-induced autism model mice; format: in vivo; conditions: oral, 14 days from day 21 after birth; 3-chamber test 35 days after birth; versus vehicle-treated VPA mice
Method: In order to perform a behavioral experiment on valproic acid (VPA)-induced autism model mice using L-serine hydrochloride prepared in Example 3, 600 mg/kg of VPA dissolved in 0.9% NaCl saline was administered subcutaneously to pregnant dams to obtain 14 VPA-induced autism model mice. Meanwhile, 8 pups born to the dams that were not administered VPA were used as a control group. […] The drug was orally administered at a dose of 10 mL/kg per day based on the individual's body weight, which is equivalent, on a molar basis, to administering 400 mg/kg of L-serine hydrochloride to humans.
Thirty-five days after birth, the mice's social interaction abilities were tested using a three-chamber test. Social novelty was evaluated based on the interaction time during an initial encounter with a novel mouse compared with a re-encounter with a familiar mouse. Sociability reflects the degree of social interaction between a mouse and another mouse, and was measured by evaluating the interaction time that the mouse spent interacting with another mouse located in one side of an empty chmber.

[4] = Storage stability in aqueous solution (discoloration, precipitation); format: physicochemical; conditions: stored in an aqueous solution at room temperature for one month

In the case of `N[C@@H](CO)C(=O)O` [L-Serine, L-serine], the AUC(0-t) (in vivo) is reported as 81.5 ± 22.5 µg·h/mL, the Cmax (in vivo) is reported as 67.5 ± 25.9 µg/mL and the Tmax (in vivo) is reported as 15 min. The half-life (in vivo) was 72.6 ± 28.8 min and the Cl/F [1] was 4.92±1.20 (mg/kg)/(µg/mL)/h.
With `Cl.N[C@@H](CO)C(=O)O` [L-Serine Hydrochloride (Example 3), L-serine hydrochloride] the Cl/F ([2]; mouse PK, serum) was 3.77±0.94 (mg/kg)/(µg/mL)/h, the AUC(0-t) ([2]; mouse, in vivo) was 141 ± 37.4 µg·h/mL and the Cmax ([2]; mouse, in vivo) was 77.7 ± 8.49 µg/mL. The Tmax ([2]; mouse, in vivo) was 37.2 min, the half-life ([2]; mouse, in vivo) was 108 ± 16.2 min and the sociability [3] was “statistically significant improvements”. For the same compound, the social novelty [3] was “statistically significant improvements” and the discoloration or precipitation [4] was “no discoloration or precipitation occurred”.
